{
  "source": "patent US20030109490A1",
  "about": "“Composite stimulating iNOS enzyme which induce immuno-reactant nitric oxide synthesis and process for preparing the same” (priority 2001, published 2003)",
  "molecules": {"B1": {"name": "rIFN-γ: recombinant IFN-γ used to stimulate macrophage RAW264.7 (protein, UniProt P01580 23-155, looked up)", "Interferon gamma": "HGTVIESLESLNNYFNSSGIDVEEKSLFLDIWRNWQKDGDMKILQSQIISFYLRLFEVLKDNQAISNNISVIESHLITTFFSNSKAKKDAFMSIAKFEVNNPQVQRQAFNELIRVVHQLLPESSLRKRKRSRC"}},
  "key": {"[1]": {"system": "Macrophage RAW264.7", "test": "NO production by macrophage RAW264.7 (microplate assay, griess reagent)", "type": "cell-based", "details": "TAXOL 10 μg/ml", "protocol": "The production of NO was investigated as the following experiment\nMacrophage RAW264.7(ATCC) was cultivated in RPMI-1640 medium (RPMI-1640 GibcoBRL 23400-021) 1.62%, sodium hydrogen carbonate 0.2%, penicillin and streptomycin 1%) supplemented with 10% fetal bovine serum (GibcoBRL 26140-079, FBS). Cell was incubated at 37° C., 5% CO2, and 95% of humidified air (CO2 incubator).\nThe production of NO was determined by employing microplate assay and the production of nitrate (NO3^−) which is an oxidized product of NO was also determined Macrophage RAW264.7(3×10^5 cells/ml) was grown in Dulbecco's modified eagle's medium supplemented with 100 U/ml penicillin, 100 μg/ml streptomycin, 10% FBS, 6 g/L HEPES, 3.7 g/L sodium hydrogen carbonate. Cell was stimulated against various control groups. Medium itself, rIFN-γ+the composite of the present invention, rIFN-γ+the composite of the present invention+LPS were stimulated to measure the production of nitrate (NO3^−) with time. After macrophage was cultured with INFγ 10 U/ml for 6 hours, the cell was incubated with each of the composite of the present invention (1 μg/ml), LPS(10 μg/ml), and the composite of the present invention (1 μg/ml)+LPS(10 μg/ml) to induce the production of nitrate (NO3^−).\nThe medium was centrifuged (1000 ppm, 10 minutes) and 100 μl of the culture supernatant was reacted with 100 μl of griess reagent (37.5 mM sulphanilic acid, 12.5 mM N-(1-naphthyl) ethylenediamine dihydrochloride, 6.5 mM hydrogen chloride) at room temperature for 10 minutes. Absorbance was measured at 540 nm using spectrophotometer. After correlation coefficient between concentration of NO3^− and absorbance was determined using nitric acid salts having concentration of 0 to 5 μM, the concentration of NO3^−-produced from macrophage RAW264.7 was calculated."}, "[2]": {"test": "anti-oxidative activity calculated as UV blocking value", "type": "physicochemical", "details": "528 nm", "method": "The anti-oxidative activity of the composite of this invention was measured at the wavelength of 528 nm using an UV-visible spectrometer (Cary, Virian Co., USA)."}, "[3]": {"system": "Macrophage RAW 264.7", "test": "TNF-α secretion of macrophage RAW 264.7 (ELISA)", "type": "cell-based", "details": "rIFN-γ alone, no LPS, no composite, 28 hrs", "protocol": "Macrophage RAW 264.7 (3×10^5 cells/well) was cultivated in RPMI-1640 medium supplemented with each of rIFN-γ, composite of this invention, and rIFN-γ+LPS, and rIFN-γ+composite of this invention for 28 hrs.\nThe secretion amount of TNF-α in the aforementioned cell was measured at a wavelength of 405 nm using ELISA method. Prior to analysis, several drops of 0.05% PBS (phosphate-buffered saline) was added to Tween 20 for its washing. All specimens for analysis was cultivated at 37° C. for 2 hrs. Recombinant murine TNF-α, so diluted, was used as a standard solution. An assay plate was exposed to (containing biotylate murine TNF-α, avidine peroxide, 30% H2O2), a substrate solution of ABTS (Azinobis(3-ethylbenzothiazoline-6-sulfonic acid)."}},
  "data": [
    {"molecule": "CC(=O)O[C@H]1C(=O)[C@@]2(C)[C@H]([C@H](OC(=O)c3ccccc3)[C@]3(O)C[C@H](OC(=O)[C@H](O)[C@@H](NC(=O)c4ccccc4)c4ccccc4)C(C)=C1C3(C)C)[C@]1(OC(C)=O)CO[C@@H]1C[C@@H]2O", "note": "[TAXOL ®]", "values": [
      {"measurement": "NO", "setting": "[1]; rIFN-γ added, no LPS, 0 h", "value": "<4.0", "unit": "µM"},
      {"measurement": "NO", "setting": "[1]; rIFN-γ added, no LPS, 12 h", "value": "30.56 ± 3.2", "unit": "µM"},
      {"measurement": "NO", "setting": "[1]; rIFN-γ and LPS added, 24 h", "value": "45.1 ± 1.2", "unit": "µM"}
    ]},
    {"molecule": "O=C1O[C@H]([C@@H](O)CO)C(O)=C1O", "note": "[Vitamin C]", "values": [
      {"measurement": "anti-oxidative activity (UV blocking value)", "setting": "[2]; 0.1% solution", "value": 21.23, "unit": "%"},
      {"measurement": "anti-oxidative activity (UV blocking value)", "setting": "[2]; 0.5% solution", "value": 28.51, "unit": "%"},
      {"measurement": "anti-oxidative activity (UV blocking value)", "setting": "[2]; 1% solution", "value": 47.83, "unit": "%"},
      {"measurement": "anti-oxidative activity (UV blocking value)", "setting": "[2]; 2% solution", "value": 58.28, "unit": "%"}
    ]},
    {"molecule": "B1", "values": [
      {"measurement": "TNF-a", "setting": "[3]", "value": "0.76 ± 0.02", "unit": "ng/mL"}
    ]}
  ]
}
